We go through three compounds from patent US9968585B2, “Prevention or treatment agent for cerebral amyloid beta storage diseases” (TOYAMA CHEMICAL CO., LTD., priority 2014, dated 2018).

Assay [1] has as its system patient with complication of AZD and CAA. In words: Clinical case, Example 1: patient with complication of AZD and CAA. It is filed as in vivo, human. The source says: Patient
Family history: […] died of cerebral hemorrhage (type unknown) in his 50s. […]
Past history: deep white matter lesions (diagnosed by head MRI, T2-WI), lateral ventricular low density area (diagnosed by head CT), and moderate cerebral atrophy in the cerebral cortex including the hippocampus, parietal lobe, and frontal lobe and mild disturbance of memorization had been observed. However, there was no particular problem in everyday life.
History of present illness: person, walking difficulty (decreased speed and decreased stability of walking) appeared and then progressed slowly. Continuous walking of long distances of 600 m or more and walking with a heavy load (10 kg or more) in their hand or on their shoulder became difficult. Short-stepped gait and frontal gait appeared sometimes, with no fall. Cerebrovascular disorder was suspected and examinations by CT and MRI (other than T2-WI) were conducted. However, any responsible lesions, which were likely to develop relatively rapid walking difficulties, were not found, other than deep white matter lesions and moderate cerebral atrophy, which were observed previously. Parkinson's disease (syndrome) was also suspected and a therapeutic agent for the disease was temporarily administered, which was stopped because of the lack of efficacy. […] Instability of walking also progressed relatively rapidly and it became difficult to walk outdoor without a walking stick.
Meanwhile, MRI (T1/2WI, T2-WI) detected multiple micro-bleeding mainly in the area from bilateral basal ganglia (thalamus and hypothalamus) to upper brain stem and the patient was diagnosed with CAA. The patient was also diagnosed with AZD based on diffuse cerebral atrophy including hippocampus and a wide range of cerebral cortex and moderate dementia. […]
For walking, an assistance, or at least handrail, became always necessary and continuous walking of distances of 50 m or more became difficult (unstable) even with an assistance. Furthermore, the patient was frequently found in a somnolence state even in the daytime and occasional decrease in the level of consciousness during meal caused difficulty in swallowing. Standing and walking became impossible during a period of repeated high fever. Chest CT detected a sign of aspiration pneumonia and the patient was admitted to a nearby hospital.
Immediately after the hospitalization, administration of antibiotics against the pulmonary inflammatory disease was started and high dose administration of mineralocorticoid (200 mg injection of Hydrocortone/day, for 7 days in plan) was also started for the purpose of steroid supplementation against the potential hypoadrenalism (mineral imbalance), due to the previous sustained steroid (5 mg) therapy. […] On Day 9 after the hospitalization, the patient became almost bedridden and nonresponsive. On Day 10 after the hospitalization, administration of a high dose of glucocorticoid (30 mg/day of Predonine) for anti-inflammatory effect was therefore started for the purpose of ameliorating the cerebral hypofunction, based on the informed consent.
However, from Day 20 after the hospitalization, a somnolence tendency appeared again and the symptoms of decline of cognitive ability, inability to walk, lack of speech, urine incontinence, apraxia and agnosia appeared again.
Since no tendency to alleviate the symptoms was observed, on Day 22 after the hospitalization, administration of 25 mg of iguratimod (for example, the trade name “Kolbet” produced and sold as an antirheumatic drug by Taisho Toyama Pharmaceutical Co., Ltd. or the trade name “Careram” produced and sold by Eisai Co., Ltd.), in addition to the high dose glucocorticoid therapy, was started for the purpose of ameliorating cognitive impairment, walking impairment, decrease of energy and spontaneity, and aphasia, apraxia, and agnosia, based on the informed consent. […]

The conditions of assay [2]: compared with MTX and SASP; cited from earlier work.
Assay [3] deals with patient with moderate dementia caused by AZD. As to the kind of experiment: Clinical case, Example 2: patient with moderate dementia caused by AZD, not associated with CAA. The assay is classed as in vivo, human. The protocol:
A person became indifferent to social activities and meeting people 3 to 4 years ago. Cognitive impairment appeared to the degree to cause difficulty in daily life activities 2 years ago. One year ago, cognitive impairment further progressed and MMSE was conducted to get scores of 14 or less. Since a head imaging detected moderate atrophy in the cerebral cortex including the parietal lobe and the hippocampus, the patient was diagnosed with “moderate dementia caused by AZD” based on the clinical and brain imaging observations. In the everyday life, disturbance of memorization was observed, in which the patient forgot contents of conversation in 5 minutes and purchased the same thing repeatedly when they went out alone. The patient liked cooking previously, but became unable to cook or adjust the taste. […] The patient became unable to manage own medication such as an antihypertensive agent (cognitive impairment on table and calculation) and management by a family member became necessary. Since efficacy (suppression of progressive symptoms) of a conventional drug against AZD was not observed for a half year or more, the administration of iguratimod at 25 mg/day was started, based on the informed consent to the patient and their family, and the dose was increased to 50 mg/day 4 weeks later.

In assay [4] the test system is production of interleukin-1 and 6 (IL-1/6) and tumor necrosis factor (TNFα) from monocyte lineage cells (macrophages). The following applies: in inflammation; cited from earlier work.
Setting [5] is: 6 months after starting the administration.
Setting [6] is: at discharge, 2 months after starting the administration.

A value given as a limit tells only on which side of the number the result lay.

For `C[C@]12CCC(=O)C=C1CC[C@@H]1[C@@H]2[C@@H](O)C[C@@]2(C)[C@H]1CC[C@]2(O)C(=O)CO` [Hydrocortone], the “neurological symptoms (energy, speech, cognitive function, walking ability)” value in assay [1] (200 mg injection/day, from 3 days after the start of the steroid replacement therapy) is “increase in energy and speech, amelioration of cognitive function, and improvement of walking ability were observed”. Moreover, the neurological symptoms result in assay [1] (200 mg injection/day, from Day 5 to 6 after the start of administration) is recorded as “the symptoms gradually aggravated”.

For `C[C@]12C=CC(=O)C=C1CC[C@@H]1[C@@H]2[C@@H](O)C[C@@]2(C)[C@H]1CC[C@]2(O)C(=O)CO` [Predonine], the “neurological symptoms (somnolence, energy, speech, walking, meals)” value in assay [1] (high dose glucocorticoid (30 mg/day of Predonine) started on Day 10 after hospitalization) was “alleviated a neurological symptom (decrease in somnolence), increased energy and speech”. Besides, the “prevention of progression of the symptoms” value in assay [1] (sustained glucocorticoid therapy at maximum dose for the patient's age, for 10 days or more, symptoms reappeared from Day 20 after hospitalization) is reported as “cannot prevent the progression of the symptoms”.

As for `CS(=O)(=O)Nc1cc2occ(NC=O)c(=O)c2cc1Oc1ccccc1` [iguratimod, N-(3-formamido-4-oxo-6-phenoxy-4H-chromen-7-yl) methanesulfonamide], the “efficacy in rheumatoid arthritis” value in assay [2] was “efficacy equivalent to MTX and SASP”. Moreover, the “head imaging: progression of cerebral atrophy” value in assay [3] (5 months after starting the administration) is listed as “the progression of cerebral atrophy was not observed”. In addition, the “Scores of MMSE” value in assay [3] (5 months after starting the administration, scores one year before 14 or less) is on record as ≥ 17. In addition, the “symptoms in daily life” value in assay [3] (iguratimod 25 mg/day, 50 mg/day after 4 weeks, 3 months after starting the administration) was “symptoms such as getting lost and failing to go home and purchasing the same thing repeatedly had disappeared”. Also, the “effect on production of IL-1/6 and TNFα from monocyte lineage cells (macrophages)” value in assay [4] is reported as “suppressing effects”. In addition, in assay [1] (setting [5]), the “continuous walking distance with an assistance” value was “about 100 m”; the “steps of stairs walked up with an assistance and use of handrail” value is 15 steps. Further, the “head MRI: novel vascular abnormality or progression of cerebral atrophy” value in assay [1] (6 months after starting the administration, compared with MRI before starting) is on record as “did not detect any appearance of novel vascular abnormality or progression of cerebral atrophy”. The “head imaging by 3T-MRI:SWI: progression of cerebral atrophy and other lesions” value in assay [1] (7 months and 19 months after the beginning of iguratimod) is “the progression of cerebral atrophy and other lesions was not apparent”. Further, the eating behavior entry in assay [1] (a half year after starting the administration) is given as “able to have meals by oneself using chopsticks”. In assay [1] (setting [6]), the “continuous walking distance with an assistance” value is given as “about 50 m” and the “steps of stairs walked up with an assistance at both arms” value is 8 steps. Also, the “spontaneity and neurological symptoms” value in assay [1] (iguratimod 25 mg added to high dose glucocorticoid, 2 days after starting the administration) is on record as “apparent amelioration of spontaneity was observed”. Moreover, the “mini-mental state examination (MMSE) score” value in assay [1] (one year after starting oral administration, score before starting 10 or less (severe dementia)) is on record as ≥ 10. Further, the “symptoms after steroid agent stopped completely” value in assay [1] (one year after starting the administration of iguratimod) is “no aggravation of symptoms”.
